From patent US12181483B2, “Kit comprising antibody binding acrolein-protein conjugate for diagnosing nephropathy” (National Yang Ming Chiao Tung University, priority 2022, dated 2024)

B1: clone #5: monoclonal antibody purified from hybridoma clone #5 recognizing acrolein-protein conjugate; heavy chain SEQ ID NO:1, light chain SEQ ID NO:2 (antibody, listed as Mus musculus, V domains shown)
VH: QVQLQESGAELARPGASVRLSCKASGNIFPDHSINWVKQRTGQGLEWIGEIFHGSGNTYYNEKFKGKATLTADKSSTTVYLQLTSLTSEDSAVYFCARWVYGSSFFDVWGAGTTVTVSSAKTTPPSVYPLAP
VL: DIVLTQTPASLAVSLGQTITIFCRASESVEYYGTNLMQWYQQKPGQPPRVLIYGASNVESGVPARFSGSGSGTDFSLNILPVEEDDIAMYFCQQSRKVPWTFGGGTKLEIKRADAAPTV

What was measured:
mice = experiment: Acrolein-treated animal model (oral gavage) compared with vehicle control: glucose handling, renal function, kidney histology; type: in vivo
Method: To investigate the role of acrolein in the pathogenesis of diabetic nephropathy (DN), we compared the renal function of HFD/STZ-induced DN mice and mice treated with acrolein (2.5 mg/kg, p.o.) as shown in FIG. 2A.
We further explored the pathological abnormalities in HFD/STZ-induced DN mice and acrolein-treated mice.

[1] = system: acrolein-modified BSA (Acr-BSA) or acrolein-modified OVA (Acr-OVA); experiment: ELISA of hybridoma clones / purified Acr-PC antibody against acrolein-modified proteins; type: binding
Method: Monoclonal antibody preparation. Female BALB/c mice were immunized three times with the acrolein-treated ovalbumin (Acr-OVA). Spleen cells from the immunized mice were fused with NS0 murine myeloma cells and cultured in a hypoxantineyamethopterinythymidine selection medium. Culture supernatants of the hybridoma were screened using an ELISA assay, pairs of wells in the microtiter plates on which acrolein-treated BSA (Acr-BSA) was absorbed. After being incubated with 100 μl of hybridoma supernatants and washed with Tris-buffered saline (TBS) containing 0.05% Tween 20 (TBST), the wells were incubated with HRP-conjugated goat anti-mouse IgG, followed by a substrate solution containing TMB. Hybridoma cells corresponding to supernatants that were positive on Acr-BSA or Acr-OVA and negative on BSA or OVA were then cloned by limiting dilutions. After the repeated screening, five clones were obtained. […] After antibody purification from hybridoma clone #5, we confirmed the specificity and examined the antibody titer using a similar ELISA assay described above.

[2] = mice kidney, acrolein group vs control group (FIG. 2I)
[3] = mice, acrolein group vs control group (FIG. 2I)
[4] = antibody purified from hybridoma clone #5 (FIG. 3B)

| Molecule | collagen fiber content and degree of fibrosis, Sirius red staining (mice; [2]) | positive immunohistochemical staining for Acr-PC in the glomeruli and renal tubules (mice; [2]) | insulin intolerance, insulin tolerance tests (ITT) (mice; mice, acrolein 2.5 mg/kg p.o., 16 weeks, severity not as high as in HFD/STZ mice (FIGS. 2D-E)) | blood glucose (fasting plasma glucose) (mice; mice, acrolein 2.5 mg/kg p.o., oral gavage for 16 weeks, vs control group (FIG. 2B)) | kidney histology, H&E staining (mice; [3]) | kidney histology, PAS staining (mice; [3]) | urine albumin/creatinine ratio (UACR) (mice; mice, oral gavage of acrolein for 12 weeks (FIG. 2F)) | urine albumin/creatinine ratio (UACR) (mice; mice, oral gavage of acrolein for 16 weeks, vs control group (FIG. 2F)) | uric acid (UA) (mice; mice, oral gavage of acrolein for 16 weeks, vs control group (FIG. 2G)) | blood urea nitrogen (BUN) (mice; mice, oral gavage of acrolein for 16 weeks, vs control group (FIG. 2H)) | antibody titer in ELISA [1, 4] | specificity in ELISA [1, 4] | recognition of Acr-BSA or Acr-OVA in ELISA ([1]; hybridoma supernatant, among five clones (#1 to #5) (FIG. 3A)) |
| --- | --- | --- | --- | --- | --- | --- | --- | --- | --- | --- | --- | --- | --- |
| C=CC=O [acrolein] | increased evidently | significantly increased | induced insulin intolerance | did not increase blood glucose | disorderly, inflammatory cell infiltration in the interstitium and vacuolar lesion in the epithelial cells | glomerular mesangium expansion and extracellular matrix deposition | increased UACR, although not significantly | significant increase | significant increase | significant increase |  |  |  |
| B1 |  |  |  |  |  |  |  |  |  |  | high | high specificity | most distinctive recognition of Acr-BSA or Acr-OVA |
